The supplement of paper PMC8671470

Tests used:
Conditions in all cases: 72 h
[1] = test system: myeloid leukemia patient primary cells Pat.12; assay: area under dose-response curve (viability, 1 nM-10 uM) (fraction (0-1)); higher = more sensitive
Procedure: (§1)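 AUC (0–1, higher = more sensitive) of the 5-point dose–response (1 nM–10 µM, 72 h, CellTiter-Glo) in primary AML/CML patient mononuclear cells. 0.030103 is the floor for inactive compounds.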

[2] = test system: myeloid leukemia patient primary cells Pat.9; assay: as above
Procedure: as §1

[3] = test system: myeloid leukemia patient primary cells Pat.10; assay: as above
Procedure: as §1

[4] = test system: myeloid leukemia patient primary cells Pat.11; assay: as above
Procedure: as §1

[5] = test system: myeloid leukemia patient primary cells Pat.1; assay: as above
Procedure: as §1

[6] = test system: myeloid leukemia patient primary cells Pat.15; assay: as above
Procedure: as §1

[7] = test system: myeloid leukemia patient primary cells Pat.8; assay: as above
Procedure: as §1

[8] = test system: myeloid leukemia patient primary cells Pat.4; assay: as above
Procedure: as §1

[9] = test system: myeloid leukemia patient primary cells Pat.2; assay: as above
Procedure: as §1

[10] = test system: myeloid leukemia patient primary cells Pat.7; assay: as above
Procedure: as §1

[11] = test system: myeloid leukemia patient primary cells Pat.3; assay: as above
Procedure: as §1

[12] = test system: myeloid leukemia patient primary cells Pat.6; assay: as above
Procedure: as §1

[13] = test system: myeloid leukemia patient primary cells Pat.5; assay: as above
Procedure: as §1

[14] = test system: myeloid leukemia patient primary cells Pat.14; assay: as above
Procedure: as §1

[15] = test system: myeloid leukemia patient primary cells Pat.13; assay: as above
Procedure: as §1

[16] = test system: myeloid leukemia patient primary cells Pat.12; assay: cell viability (% survival relative to DMSO control); higher = less cytotoxic
Outline: (§2)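 Thawed, Ficoll-purified mononuclear cells from AML or CML patients in RPMI 1640 with 10% FBS were seeded at 10,000 cells/well on 384-well plates pre-printed with 70 compounds at five tenfold concentrations, 1–10,000 nM, in duplicate, for 72 h. Viability was read by CellTiter-Glo and normalised to DMSO and 10 μM proteasome-inhibitor wells. Where given, area under the curve came from four-parameter log-logistic fits (drc, PharmacoGx R packages).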

[17] = test system: myeloid leukemia patient primary cells Pat.9; assay: as above
Outline: as §2

[18] = test system: myeloid leukemia patient primary cells Pat.10; assay: as above
Outline: as §2

[19] = test system: myeloid leukemia patient primary cells Pat.11; assay: as above
Outline: as §2

[20] = test system: myeloid leukemia patient primary cells Pat.1; assay: as above
Outline: as §2

[21] = test system: myeloid leukemia patient primary cells Pat.15; assay: as above
Outline: as §2

[22] = test system: myeloid leukemia patient primary cells Pat.8; assay: as above
Outline: as §2

[23] = test system: myeloid leukemia patient primary cells Pat.4; assay: as above
Outline: as §2

[24] = test system: myeloid leukemia patient primary cells Pat.2; assay: as above
Outline: as §2

[25] = test system: myeloid leukemia patient primary cells Pat.7; assay: as above
Outline: as §2

[26] = test system: myeloid leukemia patient primary cells Pat.3; assay: as above
Outline: as §2

[27] = test system: myeloid leukemia patient primary cells Pat.6; assay: as above
Outline: as §2

[28] = test system: myeloid leukemia patient primary cells Pat.5; assay: as above
Outline: as §2

[29] = test system: myeloid leukemia patient primary cells Pat.14; assay: as above
Outline: as §2

[30] = test system: myeloid leukemia patient primary cells Pat.13; assay: as above
Outline: as §2

KCL-22 [31] = assay: cell viability (% survival relative to DMSO control, bortezomib = 0%); higher = less cytotoxic
Outline: (§3)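 Fifteen myeloid leukaemia cell lines were exposed to compounds at 1, 10, 100, 1000 or 10000 nM in 384-well plates for 72 h at 37 °C and 5% CO2. Viability was read by CellTiter-Glo luminescence and normalised, with vehicle as 100% and a 10 µM positive control as 0%. Values are percent survival averaged over duplicates.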

KG-1 [32] = assay: as above
Outline: as §3

HEL [33] = assay: as above
Outline: as §3

Mono-Mac-6 [34] = assay: as above
Outline: as §3

THP-1 [35] = assay: as above
Outline: as §3

LAMA-84 [36] = assay: as above
Outline: as §3

BV-173 [37] = assay: as above
Outline: as §3

K-562 [38] = assay: as above
Outline: as §3

MV4-11 [39] = assay: as above
Outline: as §3

HL-60 [40] = assay: as above
Outline: as §3

NOMO-1 [41] = assay: as above
Outline: as §3

ML-2 [42] = assay: as above
Outline: as §3

KU-812 [43] = assay: as above
Outline: as §3

SHI-1 [44] = assay: as above
Outline: as §3

MOLM-13 [45] = assay: as above
Outline: as §3

KCL-22 [46] = test system: KCL-22
Outline: (§4)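 Fifteen myeloid leukaemia cell lines were seeded in RPMI 1640 at a density titrated to the linear growth range. Each line went into 384-well plates with compounds acoustically pre-printed at five tenfold doses from 1 to 10,000 nM, in duplicate, and was incubated for 72 h at 37 °C with 5% CO2. Luminescent ATP viability was normalised to vehicle and to a positive control at 10 µM. The IC50 came from four-parameter log-logistic dose–response fits.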

KG-1 [47] = test system: KG-1
Outline: as §4

HEL [48] = test system: HEL
Outline: as §4

Mono-Mac-6 [49] = test system: Mono-Mac-6
Outline: as §4

THP-1 [50] = test system: THP-1
Outline: as §4

LAMA-84 [51] = test system: LAMA-84
Outline: as §4

BV-173 [52] = test system: BV-173
Outline: as §4

K-562 [53] = test system: K-562
Outline: as §4

MV4-11 [54] = test system: MV4-11
Outline: as §4

HL-60 [55] = test system: HL-60
Outline: as §4

NOMO-1 [56] = test system: NOMO-1
Outline: as §4

ML-2 [57] = test system: ML-2
Outline: as §4

KU-812 [58] = test system: KU-812
Outline: as §4

SHI-1 [59] = test system: SHI-1
Outline: as §4

MOLM-13 [60] = test system: MOLM-13
Outline: as §4

O=C(CCl)N(CCCNC(=O)C(F)(F)F)c1ccc([N+](=O)[O-])cc1 [ML-175]
Conditions	area under dose-response curve
[1]	0.221
[2]	0.593
[3]	0.542
[4]	0.199
[5]	0.149
[6]	0.159
[7]	0.192
[8]	0.29
[9]	0.147
[10]	0.533
[11]	0.498
[12]	0.204
[13]	0.744
[14]	0.488
[15]	0.19

cell viability [%]
Conditions	1 nM	10 nM	100 nM	1000 nM	10000 nM
[16]	96.2	98.2	80.4	58.4	1.48
[17]	64.6	81.5	7.88	7.21	0.492
[18]	81.5	93.1	17.1	15.7	5.41
[19]	95.5	97	86.2	67.7	1.51
[20]	85.7	78.3	67.8	72.8	< 0
[21]	95	80.2	86.1	75.6	1.52
[22]	87.1	89	85.1	65.8	0.0301
[23]	97.6	79.3	65.7	42.1	1.37
[24]	94.8	93.7	89.3	82.8	4.31
[25]	> 100	89.4	11.6	43.6	50
[26]	96.1	96.2	23.6	46.1	0.554
[27]	97.1	94.4	70.2	61.2	1.29
[28]	99.9	51.6	< 0	2.01	< 0
[29]	87.8	82.6	29.4	51.2	2.44
[30]	92.9	88.6	71.6	62.1	3.76

CC(C)(O)CNc1nc(Nc2ccnc(C(F)(F)F)c2)nc(-c2cccc(C(F)(F)F)n2)n1 [Enasidenib]
cell viability [%]
Conditions	1 nM	10 nM	100 nM	1000 nM	10000 nM
BV-173 [37]	101	90.7	121	98.4	90
HEL [33]	106	106	123	111	85.6
HL-60 [40]	118	108	118	99.1	106
K-562 [38]	93.1	98.3	98.3	95.2	82.5
KCL-22 [31]	89.2	102	113	97.4	93.6
KG-1 [32]	103	95	107	92.8	117
KU-812 [43]	92.4	97.2	103	90	93.2
LAMA-84 [36]	101	94.8	99.1	104	103
ML-2 [42]	109	100	113	97.3	68.8
MOLM-13 [45]	83.9	90.8	98.5	101	103
MV4-11 [39]	101	88.9	112	103	81.1
Mono-Mac-6 [34]	94.8	100	113	107	126
NOMO-1 [41]	98.3	98.8	107	93.6	92.9
SHI-1 [44]	109	105	114	113	109
THP-1 [35]	101	103	114	93.5	97.5

Conditions	IC50 (cell viability) [µM]
BV-173 [52]	> 10
HEL [48]	> 10
HL-60 [55]	> 10
K-562 [53]	> 10
KCL-22 [46]	> 10
KG-1 [47]	> 10
KU-812 [58]	> 10
LAMA-84 [51]	> 10
ML-2 [57]	> 10
MOLM-13 [60]	> 10
MV4-11 [54]	> 10
Mono-Mac-6 [49]	> 10
NOMO-1 [56]	> 10
SHI-1 [59]	> 10
THP-1 [50]	> 10
